Results reported in patent US5468486A, “Vaccine containing a protein alkaloid conjugate for the treatment of fescue toxicosis” (priority 1994, dated 1995).

System: antiserum produced against the ergonovine KLH conjugate
Experiment: Competitive ELISA
Format: binding, rabbit
Conditions: for IC50 / Concentration (ng/ml) of 50% A (A50): predicted value for 50% maximal absorbance, linear regression, antiserum 1:1000, HSA-ergonovine coated plates; for IC50: read-out: Concentration (μM) of 50% A; for Cross Reactivity (%): relative to ergonovine
Experimental: Antiserum preparation: Three female New Zealand white rabbits were immunized with the HSA-ergonovine conjugate and two with the KLH-ergonovine conjugate. Initially, each rabbit was injected with 1 mg of the respective conjugate in 1 ml of phosphate buffered saline that had been emulsified with an equal amount of Freund's complete adjuvant. Booster injections of 0.2 mg of conjugate per rabbit, emulsified with Freund's incomplete adjuvant, were given at 5 and 10 weeks after the first injections. The rabbits were bled 8 and 16 days after each booster injection. Serum was collected after two cycles of low speed centrifugation. Serum from each rabbit was pooled before testing in the competitive enzyme linked immunosorbent assay (ELISA).
Competitive ELISA: Duplicate polystyrene ELISA plates were numbered and rinsed once with distilled water. The HSA-ergonovine conjugate [[…] in carbonate coating buffer (0.5μsodium carbonate, pH 9.6)] was pipetted into each well ([…]). After 2H at 30° C. the plates were washed 4 times quickly with physiologically buffered saline (PBS) Tween (0.02M phosphate, 0.15M NaCl, 3 mM KC1+0.05% TWEEN 20, pH 7.3). All subsequent rinse steps were done with PBS-Tween. Serial dilutions were made of […] compounds used in the competitive assay. All dilutions were made in PBS-Tween. These compounds and their initial concentrations were: agroclavine 0.5 mM, ergocryptine at 100 μM, unconjugated ergonovine at 1 μM, ergotamine at 100 μM, ergovaline at 10 μM, lysergol at 10 mM, dihydroergotamine at 200 μM and IAA at 1 mM. After placing 100 μl of each dilution in duplicate wells, an additional 100 μl of antiserum, produced against the ergonovine KLH conjugate, was added to each well at a dilution of 1:1000 and mixed. The plates were incubated for 2 H at 30° C. and again rinsed 4 times quickly. Protein-A alkaline phosphatase (0.5 μg/ml in PBS-Tween) was placed in wells (200 μl/well) and incubated for 2 H at 30° C. The plates were again rinsed 4 times. Substrate, SIGMA 104® phosphatase substrate (5 mg/ml), in 10% diethanolamine, pH 9.6 was added to each well (150 μl/well). The reaction was stopped after 30 min. with 3M NaOH (75 μl/well). The plates were read on a DYNATECH MINIREADER II® reader. Mean values were calculated from duplicate wells per plate and duplicate plates were averaged. From these values a percent maximal absorbance level was calculated.

## CC1=C[C@@H]2c3cccc4[nH]cc(c34)C[C@H]2N(C)C1 [agroclavine]
  IC50: 3.2 µM

## CN1C[C@H](C(=O)N[C@]2(C)O[C@@]3(O)[C@@H]4CCCN4C(=O)[C@H](Cc4ccccc4)N3C2=O)C[C@@H]2c3cccc4[nH]cc(c34)C[C@H]21 [dihydroergotamine]
  Concentration (ng/ml) of 50% A (A50): 6833 ng/mL

## CC(C)C[C@H]1C(=O)N2CCC[C@H]2[C@]2(O)O[C@](NC(=O)[C@@H]3C=C4c5cccc6[nH]cc(c56)C[C@H]4N(C)C3)(C(C)C)C(=O)N12 [ergocryptine]
  Concentration (ng/ml) of 50% A (A50): 33 ng/mL
  IC50: 0.59 µM
  Cross Reactivity (%): 5%
Listed as ergocrytine
  Concentration (ng/ml) of 50% A (A50): below 100 ng/ml
  Cross Reactivity (%): ≥ 2%

## C[C@@H](CO)NC(=O)[C@@H]1C=C2c3cccc4[nH]cc(c34)C[C@H]2N(C)C1 [ergonovine]
  Concentration (ng/ml) of 50% A (A50): 1.6 ng/mL
  IC50: 0.05 µM
  Cross Reactivity (%): 100%

## CN1C[C@H](C(=O)N[C@]2(C)O[C@@]3(O)[C@@H]4CCCN4C(=O)[C@H](Cc4ccccc4)N3C2=O)C=C2c3cccc4[nH]cc(c34)C[C@H]21 [ergotamine]
  IC50: 0.4 µM

## CC(C)[C@H]1C(=O)N2CCC[C@H]2[C@]2(O)O[C@@](C)(NC(=O)[C@@H]3C=C4c5cccc6[nH]cc(c56)C[C@H]4N(C)C3)C(=O)N12 [ergovaline]
  Concentration (ng/ml) of 50% A (A50): 8 ng/mL
  IC50: 0.15 µM
  Cross Reactivity (%): 20%
Listed as Ergovaline
  Concentration (ng/ml) of 50% A (A50): below 100 ng/ml
  Cross Reactivity (%): ≥ 2%

## CN1C[C@H](CO)C=C2c3cccc4[nH]cc(c34)C[C@H]21 [lysergol]
  Concentration (ng/ml) of 50% A (A50): 940 ng/mL
  IC50: 3.7 µM
  Cross Reactivity (%): 4%
Listed as Lysergol
  Cross Reactivity (%): less than 1%
